Laboratory results taken from PubChem BioAssay AID1982 (Sanford-Burnham Center for Chemical Genomics, 2009).
The source made the active and inactive calls. No rule for the calls is given here.

What was measured:
Assay in all cases: kinase panel binding selectivity, selectivity assay, biochemical, KINOMEscan (AID 1982)
[1] = target: Tyrosine-protein kinase JAK3 (Homo sapiens) (UniProt P52333); conditions: KINOMEscan 353-kinase binding panel, qPCR; JAK3(Kin.Dom.2); at 10 µM; hits give low values
[2] = target: Calcium/calmodulin-dependent protein kinase type II subunit alpha (Homo sapiens) (UniProt Q9UQM7); conditions: KINOMEscan 353-kinase binding panel, qPCR; CAMK2A; at 10 µM; hits give low values
[3] = target: Casein kinase I isoform gamma-2 (Homo sapiens) (UniProt P78368); conditions: KINOMEscan 353-kinase binding panel, qPCR; CSNK1G2; at 10 µM; hits give low values
GCN2(Kin.Dom.2,S808G) = conditions: KINOMEscan 353-kinase binding panel, qPCR, at 10 µM, hits give low values
[4] = target: Cyclin-dependent kinase 2 (Homo sapiens) (UniProt P24941); conditions: KINOMEscan 353-kinase binding panel, qPCR; CDK2; at 10 µM; hits give low values
[5] = target: Protein kinase C theta type (Homo sapiens) (UniProt Q04759); conditions: KINOMEscan 353-kinase binding panel, qPCR; PRKCQ; at 10 µM; hits give low values
CHEK2 = conditions: KINOMEscan 353-kinase binding panel, qPCR, at 10 µM, hits give low values
BMPR2 = conditions: KINOMEscan 353-kinase binding panel, qPCR, at 10 µM, hits give low values
[6] = target: SRSF protein kinase 1 (Homo sapiens) (UniProt Q96SB4); conditions: KINOMEscan 353-kinase binding panel, qPCR; SRPK1; at 10 µM; hits give low values
MLK1 = conditions: KINOMEscan 353-kinase binding panel, qPCR, at 10 µM, hits give low values
EPHA3 = conditions: KINOMEscan 353-kinase binding panel, qPCR, at 10 µM, hits give low values
[7] = target: Serine/threonine-protein kinase DCLK1 (Homo sapiens) (UniProt O15075); conditions: KINOMEscan 353-kinase binding panel, qPCR; DCAMKL1; at 10 µM; hits give low values
PIP5K1A = conditions: KINOMEscan 353-kinase binding panel, qPCR, at 10 µM, hits give low values
[8] = target: Inhibitor of nuclear factor kappa-B kinase subunit epsilon (Homo sapiens) (UniProt Q14164); conditions: KINOMEscan 353-kinase binding panel, qPCR; IKK-epsilon; at 10 µM; hits give low values
[9] = target: Dual specificity protein kinase CLK4 (Homo sapiens) (UniProt Q9HAZ1); conditions: KINOMEscan 353-kinase binding panel, qPCR, at 10 µM, hits give low values
[10] = target: Serine/threonine-protein kinase pim-2 (Homo sapiens) (UniProt Q9P1W9); conditions: KINOMEscan 353-kinase binding panel, qPCR; PIM2; at 10 µM; hits give low values
[11] = target: Non-receptor tyrosine-protein kinase TYK2 (Homo sapiens) (UniProt P29597); conditions: KINOMEscan 353-kinase binding panel, qPCR, at 10 µM, hits give low values
[12] = target: Serine/threonine-protein kinase BRSK1 (Homo sapiens) (UniProt Q8TDC3); conditions: KINOMEscan 353-kinase binding panel, qPCR, at 10 µM, hits give low values
TESK1 = conditions: KINOMEscan 353-kinase binding panel, qPCR, at 10 µM, hits give low values
DCAMKL2 = conditions: KINOMEscan 353-kinase binding panel, qPCR, at 10 µM, hits give low values
RIPK4 = conditions: KINOMEscan 353-kinase binding panel, qPCR, at 10 µM, hits give low values
CAMK4 = conditions: KINOMEscan 353-kinase binding panel, qPCR, at 10 µM, hits give low values
MAP3K3 = conditions: KINOMEscan 353-kinase binding panel, qPCR, at 10 µM, hits give low values
TNIK = conditions: KINOMEscan 353-kinase binding panel, qPCR, at 10 µM, hits give low values
[13] = target: Hepatocyte growth factor receptor (Homo sapiens) (UniProt P08581); conditions: KINOMEscan 353-kinase binding panel, qPCR; MET; at 10 µM; hits give low values
JAK1(Kin.Dom.1) = conditions: KINOMEscan 353-kinase binding panel, qPCR, at 10 µM, hits give low values
[14] = target: Mitogen-activated protein kinase kinase kinase 10 (Homo sapiens) (UniProt Q02779); conditions: KINOMEscan 353-kinase binding panel, qPCR; MLK2; at 10 µM; hits give low values
[15] = target: Cyclin-dependent kinase 9 (Homo sapiens) (UniProt P50750); conditions: KINOMEscan 353-kinase binding panel, qPCR; CDK9; at 10 µM; hits give low values
FGFR2 = conditions: KINOMEscan 353-kinase binding panel, qPCR, at 10 µM, hits give low values
[16] = target: Casein kinase II subunit alpha (Homo sapiens) (UniProt P68400); conditions: KINOMEscan 353-kinase binding panel, qPCR; CSNK2A1; at 10 µM; hits give low values
TGFBR2 = conditions: KINOMEscan 353-kinase binding panel, qPCR, at 10 µM, hits give low values
NEK1 = conditions: KINOMEscan 353-kinase binding panel, qPCR, at 10 µM, hits give low values
CAMKK1 = conditions: KINOMEscan 353-kinase binding panel, qPCR, at 10 µM, hits give low values
PKN1 = conditions: KINOMEscan 353-kinase binding panel, qPCR, at 10 µM, hits give low values

Measured: percent of control binding

Non-receptor tyrosine-protein kinase TYK2 (Homo sapiens), sequence (P29597 whole entry, looked up): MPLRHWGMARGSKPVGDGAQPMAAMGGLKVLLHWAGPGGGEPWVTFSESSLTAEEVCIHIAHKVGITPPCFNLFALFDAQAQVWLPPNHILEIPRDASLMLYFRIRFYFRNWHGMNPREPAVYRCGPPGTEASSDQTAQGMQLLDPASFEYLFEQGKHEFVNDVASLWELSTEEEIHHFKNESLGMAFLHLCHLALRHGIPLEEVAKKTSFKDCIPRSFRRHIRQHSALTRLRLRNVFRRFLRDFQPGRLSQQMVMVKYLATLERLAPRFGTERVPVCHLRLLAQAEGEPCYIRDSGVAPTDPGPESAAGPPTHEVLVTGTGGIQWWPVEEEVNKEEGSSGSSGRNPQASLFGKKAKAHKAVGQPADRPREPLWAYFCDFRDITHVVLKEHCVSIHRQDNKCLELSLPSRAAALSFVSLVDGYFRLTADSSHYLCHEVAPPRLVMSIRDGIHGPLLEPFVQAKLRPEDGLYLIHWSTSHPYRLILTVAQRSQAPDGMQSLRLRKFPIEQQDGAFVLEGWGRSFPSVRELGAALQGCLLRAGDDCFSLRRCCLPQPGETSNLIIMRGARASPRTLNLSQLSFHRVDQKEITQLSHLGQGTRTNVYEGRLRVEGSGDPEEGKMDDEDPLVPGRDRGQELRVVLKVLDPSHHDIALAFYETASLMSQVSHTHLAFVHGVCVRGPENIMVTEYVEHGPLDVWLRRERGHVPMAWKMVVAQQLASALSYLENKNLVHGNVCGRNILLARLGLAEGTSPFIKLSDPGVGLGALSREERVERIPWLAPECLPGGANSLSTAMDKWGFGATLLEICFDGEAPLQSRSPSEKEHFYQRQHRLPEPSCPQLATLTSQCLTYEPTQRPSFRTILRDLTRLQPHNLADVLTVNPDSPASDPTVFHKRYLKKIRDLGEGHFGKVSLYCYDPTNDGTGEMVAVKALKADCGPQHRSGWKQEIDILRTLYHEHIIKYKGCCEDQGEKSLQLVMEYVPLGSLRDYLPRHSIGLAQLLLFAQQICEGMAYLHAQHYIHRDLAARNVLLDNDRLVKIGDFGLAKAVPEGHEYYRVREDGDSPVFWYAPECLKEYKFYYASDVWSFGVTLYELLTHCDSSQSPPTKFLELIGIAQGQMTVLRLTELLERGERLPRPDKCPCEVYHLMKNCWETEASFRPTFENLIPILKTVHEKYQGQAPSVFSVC
Cyclin-dependent kinase 9 (Homo sapiens), sequence (P50750 whole entry, looked up): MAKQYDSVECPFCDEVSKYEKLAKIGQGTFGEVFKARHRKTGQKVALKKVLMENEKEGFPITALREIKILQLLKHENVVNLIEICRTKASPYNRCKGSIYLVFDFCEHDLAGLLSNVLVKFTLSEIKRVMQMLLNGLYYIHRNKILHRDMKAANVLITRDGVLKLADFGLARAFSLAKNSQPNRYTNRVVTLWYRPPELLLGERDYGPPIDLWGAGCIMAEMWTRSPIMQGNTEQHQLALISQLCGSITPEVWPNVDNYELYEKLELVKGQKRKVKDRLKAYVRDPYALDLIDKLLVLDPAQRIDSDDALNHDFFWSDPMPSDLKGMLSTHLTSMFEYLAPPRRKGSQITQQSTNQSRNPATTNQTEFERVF
Protein kinase C theta type (Homo sapiens), sequence (Q04759 whole entry, looked up): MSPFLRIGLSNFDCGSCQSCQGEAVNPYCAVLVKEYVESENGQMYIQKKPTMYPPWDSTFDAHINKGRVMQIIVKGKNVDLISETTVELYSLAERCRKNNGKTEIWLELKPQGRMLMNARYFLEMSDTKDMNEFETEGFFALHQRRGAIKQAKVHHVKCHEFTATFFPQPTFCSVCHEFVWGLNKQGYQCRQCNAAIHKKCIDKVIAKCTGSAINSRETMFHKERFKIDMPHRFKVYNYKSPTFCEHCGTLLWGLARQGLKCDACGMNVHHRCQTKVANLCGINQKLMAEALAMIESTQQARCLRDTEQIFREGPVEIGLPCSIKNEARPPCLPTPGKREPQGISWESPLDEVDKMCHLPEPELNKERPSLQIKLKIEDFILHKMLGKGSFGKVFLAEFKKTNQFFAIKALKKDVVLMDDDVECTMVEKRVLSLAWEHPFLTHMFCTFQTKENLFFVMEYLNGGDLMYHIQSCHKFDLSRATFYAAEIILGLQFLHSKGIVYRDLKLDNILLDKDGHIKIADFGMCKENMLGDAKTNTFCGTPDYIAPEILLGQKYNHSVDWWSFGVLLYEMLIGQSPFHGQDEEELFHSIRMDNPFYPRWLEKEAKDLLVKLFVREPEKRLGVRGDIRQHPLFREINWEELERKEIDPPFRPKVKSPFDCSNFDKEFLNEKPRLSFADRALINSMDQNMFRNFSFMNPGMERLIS
Tyrosine-protein kinase JAK3 (Homo sapiens), sequence (P52333 whole entry, looked up): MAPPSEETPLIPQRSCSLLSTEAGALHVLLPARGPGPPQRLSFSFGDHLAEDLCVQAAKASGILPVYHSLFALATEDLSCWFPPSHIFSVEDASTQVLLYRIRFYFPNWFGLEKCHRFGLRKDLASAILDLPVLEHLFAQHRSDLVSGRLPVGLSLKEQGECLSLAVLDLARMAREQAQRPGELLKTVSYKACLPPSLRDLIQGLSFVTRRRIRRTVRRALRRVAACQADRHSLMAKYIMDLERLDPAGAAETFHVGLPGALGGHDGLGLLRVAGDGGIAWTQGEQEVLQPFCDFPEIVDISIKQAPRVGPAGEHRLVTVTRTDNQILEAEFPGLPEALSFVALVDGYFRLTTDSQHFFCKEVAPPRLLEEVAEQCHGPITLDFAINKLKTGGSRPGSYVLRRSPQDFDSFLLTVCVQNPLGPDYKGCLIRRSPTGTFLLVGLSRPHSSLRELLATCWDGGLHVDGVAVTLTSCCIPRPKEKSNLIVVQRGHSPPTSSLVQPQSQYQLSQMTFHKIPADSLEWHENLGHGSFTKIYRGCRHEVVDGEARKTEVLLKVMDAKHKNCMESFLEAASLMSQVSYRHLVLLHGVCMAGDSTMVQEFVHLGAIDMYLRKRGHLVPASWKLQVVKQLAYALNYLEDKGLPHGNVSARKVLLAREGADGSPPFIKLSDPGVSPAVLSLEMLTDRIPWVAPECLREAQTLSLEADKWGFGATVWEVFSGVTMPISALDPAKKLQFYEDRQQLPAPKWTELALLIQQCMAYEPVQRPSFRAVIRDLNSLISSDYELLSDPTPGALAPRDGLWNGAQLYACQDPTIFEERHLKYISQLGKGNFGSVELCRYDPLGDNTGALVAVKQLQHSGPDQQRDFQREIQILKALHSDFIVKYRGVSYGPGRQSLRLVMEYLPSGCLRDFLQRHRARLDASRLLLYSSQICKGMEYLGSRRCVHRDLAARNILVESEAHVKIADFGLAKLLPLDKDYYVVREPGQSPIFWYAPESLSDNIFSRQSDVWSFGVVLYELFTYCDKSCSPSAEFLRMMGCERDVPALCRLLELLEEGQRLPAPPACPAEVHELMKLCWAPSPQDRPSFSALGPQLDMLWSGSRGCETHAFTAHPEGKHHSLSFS
Serine/threonine-protein kinase DCLK1 (Homo sapiens), sequence (O15075 whole entry, looked up): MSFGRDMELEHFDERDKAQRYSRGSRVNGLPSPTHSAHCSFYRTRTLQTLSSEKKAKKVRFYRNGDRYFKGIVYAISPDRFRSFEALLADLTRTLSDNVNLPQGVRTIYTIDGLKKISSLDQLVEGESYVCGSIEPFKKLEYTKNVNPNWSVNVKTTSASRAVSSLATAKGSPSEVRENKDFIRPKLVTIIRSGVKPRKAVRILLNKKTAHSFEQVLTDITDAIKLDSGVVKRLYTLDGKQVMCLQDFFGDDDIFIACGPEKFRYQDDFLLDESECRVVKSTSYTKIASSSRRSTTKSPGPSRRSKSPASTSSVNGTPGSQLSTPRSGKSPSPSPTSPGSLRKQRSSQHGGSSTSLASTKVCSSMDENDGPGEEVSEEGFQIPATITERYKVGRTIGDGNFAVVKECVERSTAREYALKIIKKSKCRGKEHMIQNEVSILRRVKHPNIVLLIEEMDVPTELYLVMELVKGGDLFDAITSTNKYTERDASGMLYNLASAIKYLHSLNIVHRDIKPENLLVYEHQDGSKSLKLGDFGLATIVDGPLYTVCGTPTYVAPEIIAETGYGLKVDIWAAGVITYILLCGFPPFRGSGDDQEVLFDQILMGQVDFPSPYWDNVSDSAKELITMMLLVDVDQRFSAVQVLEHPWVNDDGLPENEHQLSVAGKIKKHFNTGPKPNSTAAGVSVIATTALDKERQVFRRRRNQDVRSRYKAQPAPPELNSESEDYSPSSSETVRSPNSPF
Casein kinase II subunit alpha (Homo sapiens), sequence (P68400 whole entry, looked up): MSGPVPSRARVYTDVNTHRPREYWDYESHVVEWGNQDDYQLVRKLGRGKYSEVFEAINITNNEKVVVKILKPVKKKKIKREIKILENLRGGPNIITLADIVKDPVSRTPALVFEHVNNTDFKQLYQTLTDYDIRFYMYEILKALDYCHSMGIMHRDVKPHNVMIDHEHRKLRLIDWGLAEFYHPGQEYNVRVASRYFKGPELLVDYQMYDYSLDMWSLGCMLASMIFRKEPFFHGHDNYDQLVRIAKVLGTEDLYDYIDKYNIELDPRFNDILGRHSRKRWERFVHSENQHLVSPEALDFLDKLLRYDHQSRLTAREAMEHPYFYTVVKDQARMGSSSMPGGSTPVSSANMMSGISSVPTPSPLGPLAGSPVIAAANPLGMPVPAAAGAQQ
Serine/threonine-protein kinase pim-2 (Homo sapiens), sequence (Q9P1W9 whole entry, looked up): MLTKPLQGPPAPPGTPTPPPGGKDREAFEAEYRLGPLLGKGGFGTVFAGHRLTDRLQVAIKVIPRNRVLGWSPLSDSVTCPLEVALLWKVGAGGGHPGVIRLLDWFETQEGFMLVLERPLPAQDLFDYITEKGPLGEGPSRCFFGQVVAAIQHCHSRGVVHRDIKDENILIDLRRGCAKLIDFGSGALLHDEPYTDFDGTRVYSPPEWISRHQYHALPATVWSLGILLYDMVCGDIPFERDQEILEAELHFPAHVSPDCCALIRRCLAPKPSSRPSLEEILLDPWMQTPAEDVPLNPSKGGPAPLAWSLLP

Cc1cc2nc(NCCCO)n(CC(=O)c3cc(C(C)(C)C)c(O)c(C(C)(C)C)c3)c2cc1C
inactive: [1] 100% | [2] 85% | [3] 100% | GCN2(Kin.Dom.2,S808G) 95% | [4] 95% | [5] 100% | CHEK2 100% | BMPR2 64% | [6] 100% | MLK1 100% | EPHA3 84% | [7] 100% | PIP5K1A 77% | [8] 86% | [9] 100% | [10] 94% | [11]; TYK2 Kin.Dom.1 84% | [11]; TYK2 Kin.Dom.2 98% | [12] 100% | TESK1 89% | DCAMKL2 89% | RIPK4 89% | CAMK4 100% | MAP3K3 82% | TNIK 100% | [13] 97% | JAK1(Kin.Dom.1) 100% | [14] 100% | [15] 91% | FGFR2 100% | [16] 81% | TGFBR2 100% | NEK1 91% | CAMKK1 78% | PKN1 100%
